According to US5767291A, “Phenyl heterocycles as cox-2 inhibitors” (Merck Frosst Canada, Inc., priority 1996, dated 1998):
Like-named read-outs stand apart in the source and are kept apart here.

Target: T1, cyclooxygenase-2 (COX-2) (Homo sapiens, UniProt P35354)
T1 construct: human osteosarcoma 143 cells (which specifically express cyclooxygenase-2); endogenous in cells; host or cells: human osteosarcoma 143 cells (whole cells, and microsomes prepared from them)
T1 sequence (P35354 18-604): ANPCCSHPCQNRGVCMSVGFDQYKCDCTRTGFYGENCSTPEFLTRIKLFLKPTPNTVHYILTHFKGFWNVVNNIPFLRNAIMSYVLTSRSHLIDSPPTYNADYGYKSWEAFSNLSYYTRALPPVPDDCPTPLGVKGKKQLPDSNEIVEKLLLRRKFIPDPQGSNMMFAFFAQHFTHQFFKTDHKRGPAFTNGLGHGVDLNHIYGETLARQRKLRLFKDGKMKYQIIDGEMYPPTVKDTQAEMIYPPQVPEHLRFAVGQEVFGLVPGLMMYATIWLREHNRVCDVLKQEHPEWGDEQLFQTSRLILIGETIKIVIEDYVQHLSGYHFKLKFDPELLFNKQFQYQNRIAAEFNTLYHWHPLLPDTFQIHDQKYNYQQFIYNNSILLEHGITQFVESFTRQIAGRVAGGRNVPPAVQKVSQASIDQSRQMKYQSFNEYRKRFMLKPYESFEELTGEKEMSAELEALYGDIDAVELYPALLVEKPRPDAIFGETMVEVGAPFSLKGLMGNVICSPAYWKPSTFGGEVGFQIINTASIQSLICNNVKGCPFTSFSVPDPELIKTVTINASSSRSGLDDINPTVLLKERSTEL
Assay: Whole cell cyclooxygenase assay, COX-2 (PGE2 synthesis in response to arachidonic acid, radioimmunoassay), human osteosarcoma 143 cells
Assay type: cell-based
Details: read-out: Whole Cells COX-2 % inhib.; for inhibition at 0.01 µM: 10 nM; for inhibition at 0.1 µM: 100 nM; for inhibition at 0.08 µM: 80 nM; for inhibition at 0.04 µM: 40 nM
Procedure: Compounds were tested as inhibitors of cyclooxygenase activity in whole cell and microsomal cyclooxygenase assays. Both of these assays measured prostaglandin E2 (PGE2) synthesis in response to arachidonic acid, using a radioimmunoassay. Cells used for whole cell assays, and from which microsomes were prepared for microsomal assays, were human osteosarcoma 143 cells (which specifically express cyclooxygenase-2) and human U-937 cells (which specifically express cyclooxygenase-1). In these assays, 100% activity is defined as the difference between prostaglandin E2 synthesis in the absence and presence of arachidonate addition.

| SMILES | inhibition at 0.01 µM | inhibition at 0.02 µM (20 nM) | inhibition at 0.16 µM (160 nM) | inhibition at 0.04 µM | also measured |
| --- | --- | --- | --- | --- | --- |
| CS(=O)(=O)c1ccc(-c2cnsc2-c2ccc(F)cc2)cc1 [Example 8, 4-(4-(Methylsulfonyl)phenyl)-5-(4-fluorophenyl)-isothiazole] | 41% |  |  |  | inhibition at 0.1 µM: 89% |
| CC1(C)OC(=O)C(c2ccc(F)cc2)=C1c1ccc(S(C)(=O)=O)cc1 [Example 12, 5,5-Dimethyl-3-(4-fluorophenyl)-4-(4-methylsulfonylphenyl)-2-(5H)-furanone] |  |  |  |  | inhibition at 0.1 µM: 54% |
| CS(=O)(=O)c1ccc(C2=C(c3ccc(F)cc3F)C(=O)OC2)cc1 [Example 15, 3-(2,4-Difluorophenyl)-4-(4-(methylsulfonyl)phenyl)-2-(5H)-furanone] |  | 39% | 95% |  | inhibition at 0.08 µM: 76% |
| CS(=O)(=O)c1ccc(C2=C(c3ccc(F)c(F)c3)C(=O)OC2)cc1 [Example 16, 3-(3,4-Difluorophenyl)-4-(4-(methylsulfonyl)phenyl)-2-(5H)-furanone] |  | 41% | 85% | 50% |  |
| CS(=O)(=O)c1ccc(C2=C(c3c(F)cccc3F)C(=O)OC2)cc1 [Example 17, 3-(2,6-Difluorophenyl)-4-(4-(methylsulfonyl)phenyl)-2-(5H)-furanone] |  |  | 77% | 41% |  |
| CS(=O)(=O)c1ccc(C2=C(c3cc(F)ccc3F)C(=O)OC2)cc1 [Example 18, 3-(2,5-Difluorophenyl)-4-(4-(methylsulfonyl)phenyl)-2-(5H)-furanone] |  |  | 58% | 24% |  |
| CS(=O)(=O)c1ccc(C2=C(c3cc(F)cc(F)c3)C(=O)OC2)cc1 [Example 19, 3-(3,5-Difluorophenyl)-4-(4-(methylsulfonyl)phenyl)-2-(5H)-furanone] |  |  | 59% | 21% |  |
| CS(=O)(=O)c1ccc(C2=C(c3ccc(Br)cc3)C(=O)OC2)cc1 [Example 20, 3-(4-Bromophenyl)-4-(4-(methylsulfonyl)phenyl)-2-(5H)-furanone] | 70% |  |  | 91% |  |
| CS(=O)(=O)c1ccc(C2=C(c3ccc(Cl)cc3)C(=O)OC2)cc1 [Example 21, 3-(4-Chlorophenyl)-4-(4-(methylsulfonyl)phenyl)-2-(5H)-furanone] | 50% |  |  | 94% |  |
| COc1ccc(C2=C(c3ccc(S(C)(=O)=O)cc3)COC2=O)cc1 [Example 22, 3-(4-Methoxyphenyl)-4-(4-(methylsulfonyl)phenyl)-2-(5H)-furanone] |  | 39% | 98% |  |  |
| CS(=O)(=O)c1ccc(C2=C(c3ccccc3)C(=O)OC2)cc1 [Example 23, 3-(Phenyl)-4-(4-(methylsulfonyl)phenyl)-2-(5H)-furanone] |  |  |  |  | inhibition at 0.02 µM: 50%; inhibition at 0.16 µM: 88% |
| CS(=O)(=O)c1ccc(C2=C(c3ccccc3Cl)C(=O)OC2)cc1 [Example 24, 3-(2-Chlorophenyl)-4-(4-(methylsulfonyl)phenyl)-2-(5H)-furanone] |  |  | 78% | 43% |  |
| CS(=O)(=O)c1ccc(C2=C(c3ccc(F)cc3Br)C(=O)OC2)cc1 [Example 25, 3-(2-Bromo-4-fluorophenyl)-4-(4-(methylsulfonyl)phenyl)-2-(5H)-furanone] |  |  | 40% |  |  |
| CS(=O)(=O)c1ccc(C2=C(c3ccc(Cl)cc3Br)C(=O)OC2)cc1 [Example 26, 3-(2-Bromo-4-Chlorophenyl)-4-(4-(methylsulfonyl)phenyl)-2-(5H)-furanone] |  |  | 39% |  | inhibition at 0.08 µM: 27% |
| CS(=O)(=O)c1ccc(C2=C(c3ccc(Cl)cc3F)C(=O)OC2)cc1 [Example 27, 3-(4-Chloro-2-fluorophenyl)-4-(4-(methylsulfonyl)phenyl)-2-(5H)-furanone] |  | 38% | 97% |  |  |
| CS(=O)(=O)c1ccc(C2=C(c3ccc(F)c(Br)c3)C(=O)OC2)cc1 [Example 28, 3-(3-Bromo-4-fluorophenyl)-4-(4-(methylsulfonyl)phenyl)-2-(5H)-furanone] |  | 48% | 69% |  |  |

| SMILES | inhibition at 0.01 µM | inhibition at 0.02 µM (20 nM) | inhibition at 0.16 µM (160 nM) | inhibition at 0.04 µM | also measured |
| --- | --- | --- | --- | --- | --- |
| CS(=O)(=O)c1ccc(C2=C(c3cccc(Cl)c3)C(=O)OC2)cc1 [Example 29, 3-(3-Chlorophenyl)-4-(4-(methylsulfonyl)phenyl)-2-(5H)-furanone] |  | 78% | 85% |  |  |
| CS(=O)(=O)c1ccc(C2=C(c3ccc(F)cc3Cl)C(=O)OC2)cc1 [Example 30, 3-(2-Chloro-4-fluorophenyl)-4-(4-(methylsulfonyl)phenyl)-2-(5H)-furanone] |  |  | 30% |  |  |
| CS(=O)(=O)c1ccc(C2=C(c3ccc(Cl)cc3Cl)C(=O)OC2)cc1 [Example 31, 3-(2,4-Dichlorophenyl)-4-(4-(methylsulfonyl)phenyl)-2-(5H)-furanone] |  | 49% | 87% |  |  |
| CS(=O)(=O)c1ccc(C2=C(c3ccc(Cl)c(Cl)c3)C(=O)OC2)cc1 [Example 32, 3-(3,4-Dichlorophenyl)-4-(4-(methylsulfonyl)phenyl)-2-(5H)-furanone] | 73% |  |  | 92% | inhibition at 0.005 µM (5 nM): 43%; inhibition at 0.08 µM: 99% |
| CS(=O)(=O)c1ccc(C2=C(c3c(Cl)cccc3Cl)C(=O)OC2)cc1 [Example 33, 3-(2,6-Dichlorophenyl)-4-(4-(methylsulfonyl)phenyl)-2-(5H)-furanone] |  |  | 6% |  |  |
| CS(=O)(=O)c1ccc(C2=C(c3ccc(F)c(Cl)c3)C(=O)OC2)cc1 [Example 34, 3-(3-Chloro-4-fluorophenyl)-4-(4-(methylsulfonyl)phenyl)-2-(5H)-furanone] | 30% |  | 102% | 80% |  |
| CS(=O)(=O)c1ccc(C2=C(c3ccc(C(F)(F)F)cc3)C(=O)OC2)cc1 [Example 35, 3-(4-Trifluoromethylphenyl)-4-(4-(methylsulfonyl)phenyl)-2-(5H)-furanone] |  | 32% | 83% | 57% |  |
| COc1ccc(C2=C(c3ccc(S(C)(=O)=O)cc3)COC2=O)cc1F [Example 36, 3-(3-Fluoro-4-methoxyphenyl)-4-(4-(methylsulfonyl)phenyl)-2-(5H)-furanone] | 11% |  | 89% | 50% |  |
| COc1ccc(C2=C(c3ccc(S(C)(=O)=O)cc3)COC2=O)cc1Cl [Example 37, 3-(3-Chloro-4-methoxyphenyl)-4-(4-(methylsulfonyl)phenyl)-2-(5H)-furanone] | 53% |  | 93% | 82% |  |
| COc1ccc(C2=C(c3ccc(S(C)(=O)=O)cc3)COC2=O)cc1Br [Example 38, 3-(3-Bromo-4-methoxyphenyl)-4-(4-(methylsulfonyl)phenyl)-2-(5H)-furanone] | 25% |  | 88% | 63% |  |
| CS(=O)(=O)c1ccc(C2=C(c3ccccc3F)C(=O)OC2)cc1 [Example 39, 3-(2-Fluorophenyl)-4-(4-(methylsulfonyl)phenyl)-2-(5H)-furanone] | 17% |  | 84% |  |  |
| CSc1ccc(C2=C(c3ccc(S(C)(=O)=O)cc3)COC2=O)cc1 [Example 40, 3-(4-Methylthiophenyl)-4-(4-(methylsulfonyl)phenyl)-2-(5H)-furanone] | 43% |  | 96% | 72% |  |
| CS(=O)(=O)c1ccc(C2=C(c3c(F)cccc3Cl)C(=O)OC2)cc1 [Example 42, 3-(2-Chloro-6-fluorophenyl)-4-(4-(methylsulfonyl)phenyl)-2-(5H)-furanone] |  | 10% | 44% |  |  |
| Cc1ccc(C2=C(c3ccc(S(C)(=O)=O)cc3)COC2=O)cc1Br [Example 43, 3-(3-Bromo-4-methylphenyl)-4-(4-(methylsulfonyl)phenyl)-2-(5H)-furanone] | 78% |  |  | 101% |  |
| CS(=O)(=O)c1ccc(C2=C(c3ccc(Br)cc3F)C(=O)OC2)cc1 [Example 44, 3-(4-Bromo-2-fluorophenyl)-4-(4-(methylsulfonyl)phenyl)-2-(5H)-furanone] |  | 14% | 106% | 55% |  |
| CS(=O)(=O)c1ccc(C2=C(c3ccc(Br)c(Br)c3)C(=O)OC2)cc1 [Example 45, 3-(3,4-Dibromophenyl)-4-(4-(methylsulfonyl)phenyl)-2-(5H)-furanone] | 16% |  | 101% | 61% |  |
